{"source": "patent US20230124142A1", "about": "“NEW THERAPEUTIC TARGETS WITH AN ANTI-INFLAMMATORY AND ANTI-INTERFERON EFFECT” (UNIVERSITÉ PARIS CITÉ, priority 2020, published 2023)", "key": {"[1]": {"system": "HEK293 non-immune cell line", "assay": "Interferon production by cGAMP-activated HEK293 non-immune cells (STING-37), luciferase", "details": "inhibitor at 1 μM (FIG. 23C)"}, "[2]": {"system": "THP1-Dual human monocyte cell line", "assay": "Interferon response of cGAMP-activated THP1-Dual cells, luciferase", "details": "inhibitor 1 h before cGAMP 3 μg/ml, 24 h, luciferase (FIG. 22B, 23B)"}, "[3]": {"system": "neurones infected by the prions", "assay_type": "cell-based"}, "[4]": {"system": "peripheral blood mononuclear cells (PBMCs)", "assay": "Interferon production by cGAMP-activated PBMCs, STING-37 reporter cell line", "details": "inhibitor 1 h before cGAMP 3 μg/ml, 24 h, STING-37 reporter (FIG. 22A, 23A)"}, "activated immune cells": {"system": "activated immune cells", "assay": "Secretion of inflammatory cytokines and interferons by activated immune cells placed in contact with ROCK inhibitor", "assay_type": "cell-based", "details": "compared with activated immune cells not placed in contact with the inhibitor"}, "[5]": {"system": "peripheral blood mononuclear cells (PBMCs)", "assay": "Cell toxicity on PBMCs, ATP quantification with CellTiter Glo", "assay_type": "cell-based, human", "details": "cGAMP 24 h"}, "[6]": {"system": "peripheral blood mononuclear cells (PBMCs) of healthy donors", "assay": "Secretion of inflammatory cytokines and interferons by PBMCs after TLR7/8 (R848) stimulation, LegendPlex"}, "[7]": {"system": "THP1-Dual human monocyte cell line", "assay": "Cell toxicity on THP1-Dual, ATP quantification with CellTiter Glo", "assay_type": "cell-based", "details": "cGAMP 24 h"}, "[8]": {"system": "peripheral blood mononuclear cells (PBMCs) of healthy donors", "assay": "Toxicity on PBMCs (CellTiter-Glo), TLR4 stimulation", "assay_type": "cell-based, human", "details": "24 h, CellTiter-Glo (FIG. 8)", "protocol": "(§1) After 24 h of cell culture, the cell viability was determined using the CellTiter-Glo reagent (Promega), which evaluates the amount of ATP by luminescence using the EnSpire."}, "[9]": {"system": "plasmacytoid dendritic cells (pDC) of healthy donors", "assay": "Intracellular IFNα and TNFα in plasmacytoid dendritic cells in response to HIV, flow cytometry", "assay_type": "cell-based, human", "details": "AT-2-inactivated HIV-1MN, 16 h", "protocol": "The cells were rinsed in PBS then incubated with a viability dye (Zombie Aqua, Biolegend) for 30 min at ambient temperature. After washing, the cells were resuspended in PBS containing 2% SVF and 2 mM EDTA then labelled with the APC Vio770 anti-CD14 (clone REA599) antibody from Miltenyi Biotec, used at 1/100°. For the intracellular labelling of TNFα and IFNα, the “Inside Stain” kit (Miltenyi Biotec) was used according to the manufacturer's protocol. The cells were fixed for 20 min at ambient temperature with 250 μL Inside Fix solution then labelled in 100 μL Inside Perm solution containing the APC anti-TNFα (Miltenyi Biotec) and/or PE anti-IFNα (Miltenyi Biotec) antibody at 1/50° for 30 min at ambient temperature. Data acquisition was carried out on the Canto II flow cytometer using the Diva software (BD Biosciences, San Jose, Calif.). The Kaluza software was used to analyze the data."}, "[10]": {"system": "monocytes of patients suffering from juvenile idiopathic arthritis", "assay": "Spontaneous TNFα production by monocytes of juvenile idiopathic arthritis patients, SIMOA (digital ELISA)", "assay_type": "cell-based, human", "details": "inhibitor 24 h, SIMOA (FIG. 16)", "protocol": "The assay of the TNFα secreted by the monocytes of a patient suffering from juvenile idiopathic arthritis was carried out by SIMOA (digital ELISA)."}, "[11]": {"system": "monocytes of healthy donors", "assay": "Intracellular TNFα production in monocytes after TLR2 (lipoteichoic acid, LTA) stimulation, flow cytometry", "assay_type": "cell-based, human", "details": "inhibitor 1 h before LTA (TLR2) 1 μg/ml, 16 h, flow cytometry (FIG. 6)", "protocol": "(§2) The cells were rinsed in PBS then incubated with a viability dye (Zombie Aqua, Biolegend) for 30 min at ambient temperature. After washing, the cells were resuspended in PBS containing 2% SVF and 2 mM EDTA then labelled with the APC Vio770 anti-CD14 (clone REA599) antibody from Miltenyi Biotec, used at 1/100°. […] The cells were fixed for 20 min at ambient temperature with 250 μL Inside Fix solution then labelled in 100 μL Inside Perm solution containing the PE anti-TNFα (Miltenyi Biotec) and/or APC anti-IL-1β (Miltenyi Biotec) antibody at 1/50° for 30 min at ambient temperature. Data acquisition was carried out on the Canto II flow cytometer using the Diva software (BD Biosciences, San Jose, Calif.). The Kaluza software was used to analyze the data."}, "[12]": {"system": "immune cells (PBMCs and purified monocytes) of healthy donors", "assay": "Production of inflammatory cytokines by PBMCs and purified monocytes after TLR2/4 stimulation by bacterial agents", "assay_type": "cell-based, human", "details": "TLR 2/4 stimulation by lipoteichoic acid/LPS"}, "[13]": {"system": "monocytes of healthy donors", "assay": "Intracellular TNFα production in monocytes after TLR7/8 (Resiquimod-R848) stimulation, flow cytometry", "assay_type": "cell-based, human", "details": "inhibitor 1 h before R848 (TLR7/8), 16 h, flow cytometry (FIG. 1, 2)", "protocol": "(§3) The cells were rinsed in PBS then incubated with a viability dye (Zombie Aqua, Biolegend) for 30 min at ambient temperature. After washing, the cells were resuspended in PBS containing 2% SVF and 2 mM EDTA then labelled with the APC Vio770 anti-CD14 (clone REA599) antibody from Miltenyi Biotec, used at 1/100°. […] Data acquisition was carried out on the Canto 11 flow cytometer using the Diva software (BD Biosciences, San Jose, Calif.). The Kaluza software was used to analyze the data."}, "[14]": {"system": "peripheral blood mononuclear cells (PBMCs) of healthy donors", "assay": "Toxicity on PBMCs (CellTiter-Glo), TLR7/8 stimulation", "assay_type": "cell-based, human", "details": "TLR 7/8 stimulation, 24 h, CellTiter-Glo (FIG. 4)", "protocol": "Test for toxicity of the compounds on the peripheral blood mononuclear cells (PBMCs).\nas §1"}, "[15]": {"system": "monocytes of healthy donors", "assay": "Intracellular IL1β and TNFα in monocytes after inflammasome activation by uric acid crystals (MSU, gout model), flow cytometry", "assay_type": "cell-based, human", "protocol": "as §3, with “II” for “11”"}, "[16]": {"system": "peripheral blood mononuclear cells (PBMCs) of healthy donors", "assay": "Toxicity on PBMCs (CellTiter-Glo), HIV", "assay_type": "cell-based, human", "details": "PBMCs of healthy donors infected with HIV, 24 h, CellTiter-Glo (FIG. 14)", "protocol": "as §1"}, "[17]": {"system": "peripheral blood mononuclear cells (PBMCs) of healthy donors", "assay": "Secretion of inflammatory cytokines and interferons by PBMCs after TLR4 stimulation, LegendPlex", "assay_type": "cell-based, human", "details": "24 h, LegendPlex (FIG. 7)"}, "[18]": {"system": "peripheral blood mononuclear cells (PBMCs) of healthy donors", "assay": "Interferon secretion by R848-stimulated PBMCs, inhibitor before, during or after stimulation, STING-37 reporter cell line", "assay_type": "cell-based, human"}, "[19]": {"system": "monocytes of healthy donors", "assay": "Intracellular TNFα production in monocytes after TLR4 (LPS) stimulation, flow cytometry", "assay_type": "cell-based, human", "details": "inhibitor 1 h before LPS (TLR4) 100 ng/ml, 16 h, flow cytometry (FIG. 5)", "protocol": "as §2"}, "[20]": {"system": "peripheral blood mononuclear cells (PBMCs) of healthy donors", "assay": "Secretion of inflammatory cytokines and interferons by PBMCs in response to HIV, LegendPlex", "assay_type": "cell-based, human", "details": "24 h, LegendPlex (FIG. 13)"}, "[21]": {"details": "PBMCs of healthy donors, inhibitor 1 h before R848 (TLR7/8), 24 h, LegendPlex (FIG. 3)"}}, "data": [{"molecule": "Cc1cncc2cccc(S(=O)(=O)N3CCCNCC3C)c12", "note": "(stereo not drawn) [dimethylfasudil]", "values": [{"measurement": "production of interferon induced by the STING ligand", "setting": "[1]", "value": "does not block"}, {"measurement": "production of interferons (IFN) induced by the cGAMP", "setting": "[2]", "value": "blocks the production of interferons (IFN) induced by the cGAMP according to a dosage effect starting from 1 μM"}, {"measurement": "level of TNFα in the culture medium", "setting": "[3]", "value": "re-establishes a “normal” level"}, {"measurement": "production of interferons (IFN) induced by the cGAMP", "setting": "[4]", "value": "blocks the production of interferons (IFN) induced by the cGAMP according to a dosage effect starting from 1 μM"}, {"measurement": "secretion of the inflammatory cytokines (TNFα, IL-1β, IL6, MCP1 (CCL2)) and of the interferons (IFN)", "setting": "activated immune cells", "value": "inhibits the secretion"}, {"measurement": "viability of the PBMCs", "setting": "[5]", "value": "without affecting the viability"}, {"measurement": "production of TNFα and of pro-inflammatory cytokines such as IL-6, IL-1β and the interferons induced by the TLR7/8 stimulation", "setting": "[6]; human PBMCs incubated with inhibitor before R848 stimulation", "value": "inhibits the production"}, {"measurement": "viability of the THP1-Dual", "setting": "[7]", "value": "without affecting the viability"}]}, {"molecule": "BX912", "values": [{"measurement": "toxicity on PBMCs", "setting": "[8]", "value": "no toxicity"}, {"measurement": "intracellular production of interferon IFNα", "setting": "[9]; flow cytometry (FIG. 11)", "value": "inhibits the intracellular production"}, {"measurement": "production of TNFα", "setting": "[9]; flow cytometry (FIG. 12)", "value": "inhibits the production"}, {"measurement": "spontaneous production of TNFα", "setting": "[10]", "value": "inhibits the spontaneous production"}, {"measurement": "production of inflammatory cytokines (TNFα)", "setting": "[11]", "value": "inhibits, according to a dosage effect"}, {"measurement": "production of inflammatory cytokines", "setting": "[12]", "value": "capable of inhibiting the production of inflammatory cytokines"}, {"measurement": "intracellular production of inflammatory cytokines (TNFα)", "setting": "[13]", "value": "inhibits, according to a dosage effect"}, {"measurement": "toxicity on the immune cells (PBMCs)", "setting": "[14]", "value": "no toxicity"}, {"measurement": "production of inflammatory cytokines", "setting": "[15]; activation of the inflammasome by uric acid crystals (mimicking gout)", "value": "capable of inhibiting the production of inflammatory cytokines"}, {"measurement": "intracellular production of IL1β", "setting": "[15]; uric acid crystals (MSU) 50 μg/ml, 16 h, gout model (FIG. 9)", "value": "inhibits the intracellular production"}, {"measurement": "production of TNFα", "setting": "[15]; uric acid crystals (MSU) 50 μg/ml, 16 h, gout model (FIG. 10)", "value": "inhibits the production"}, {"measurement": "toxicity on PBMCs", "setting": "[16]", "value": "no toxicity"}, {"measurement": "secretion of the inflammatory cytokines (IL-6, IL-1β, TNFα, GM-CSF, IL-10)", "setting": "[17]", "value": "inhibits the secretion"}, {"measurement": "secretion of the interferons (IFNI2/3, IFNβ, IFNg)", "setting": "[17]", "value": "inhibits the secretion"}, {"measurement": "secretion of interferons", "setting": "[18]; inhibitor during the TLR 7/8 stimulation, STING-37 reporter (FIG. 15B)", "value": "blocking"}, {"measurement": "secretion of interferons", "setting": "[18]; inhibitor in a curative manner, 1 h after TLR 7/8 stimulation, STING-37 reporter (FIG. 15C)", "value": "blocking"}, {"measurement": "secretion of interferons", "setting": "[18]; inhibitor in a preventive manner, 1 h before TLR 7/8 stimulation, STING-37 reporter (FIG. 15A)", "value": "blocking"}, {"measurement": "production of inflammatory cytokines (TNFα)", "setting": "[19]", "value": "inhibits, according to a dosage effect"}, {"measurement": "secretion of the inflammatory cytokines (IL-6, IL-1β, TNFα, IP10, GM-CSF, IL-10)", "setting": "[6]; [21]", "value": "inhibits the secretion"}, {"measurement": "secretion of the interferons (IFNI1, IFNI2/3, IFNβ, IFNg)", "setting": "[6]; [21]", "value": "inhibits the secretion"}, {"measurement": "secretion of the inflammatory cytokines (IL-6, IL-1β, TNFα, IP10)", "setting": "[20]", "value": "inhibits the secretion"}, {"measurement": "secretion of the interferons (IFNα2, IFNβ, IFNI1)", "setting": "[20]", "value": "inhibits the secretion"}]}]}
